From the NIST ThermoML archive (doi:10.1016/j.tca.2010.06.014)
Values joined by “and” are separate entries in the source; they are usually repeats but may differ in a detail not shown here. Equal values may be shown once.

Settings: Liquid, DSC

O=[N+]([O-])OCC(CO[N+](=O)[O-])O[N+](=O)[O-] [nitroglycerin]
Settings	vapor or sublimation pressure
298.15 K	7e-05 kPa and 7.1e-05 kPa
303.15 K	0.00014 kPa and 0.000137 kPa
313.15 K	0.00046 kPa and 0.000462 kPa
323.15 K	0.0014 kPa and 0.001402 kPa
333.15 K	0.00387 kPa and 0.003866 kPa
343.15 K	0.00981 kPa and 0.009811 kPa
353.15 K	0.02313 kPa
363.15 K	0.05111 kPa
373.15 K	0.1066 kPa
383.15 K	0.211 kPa
393.15 K	0.3988 kPa
403.15 K	0.7228 kPa
413.15 K	1.261 kPa
423.15 K	2.127 kPa
433.15 K	3.475 kPa
443.15 K	5.519 kPa
453.15 K	8.539 kPa
463.15 K	12.9 kPa
473.15 K	19.06 kPa
483.15 K	27.59 kPa
493.15 K	39.2 kPa
503.15 K	54.73 kPa
513.15 K	75.19 kPa
523.15 K	101.77 kPa
